# In patent US12540143B2, “Methods and compositions for targeted protein degradation” (Ranok Therapeutics (Hangzhou) Co. Ltd., priority 2019, dated 2026):
# Tests used:
# HSP90α = HSP90α (Homo sapiens, UniProt P07900); assay: HSP90α Binding Fluorescent Polarization (FP) Assay; conditions: as shown in Table 1
# Procedure: HSP90α Binding Fluorescent Polarization (FP) Assay
# A master mix was prepared with assay buffer, BSA and FITC-geldanamycin. In a 96-well plate, a serial 3-fold dilution of each compound was prepared ranging from 40 μM down until 2.0 nM. Also in a 96-well plate, recombinant HSP90α protein was diluted to 28 μg/ml. Then, in a 384-well plate, 10 μl of master mix and 5 μl of compound dilution were added per well to duplicate wells and mixed by brief shaking. Then 5 μl of diluted HSP90α protein was added per well, mixed by brief shaking, incubated at 25° C. for 30, 60 and 120 min and fluorescence was measured on an En Vision Plate Reader. Background-subtracted mP values were calculated from En Vision raw data and a four-parameter “log[inhibitor] vs. response” curve was fitted using GraphPad Prism 7.0.
# ATAD2 = ATAD2 (Homo sapiens, UniProt Q6PL18); assay: Bromodomain Binding Assay; conditions: 10 μM Compound 074, read-out: Bromodomain Binding % of Control
# Chain of ATAD2 (Q6PL18 980-1092 limits assumed): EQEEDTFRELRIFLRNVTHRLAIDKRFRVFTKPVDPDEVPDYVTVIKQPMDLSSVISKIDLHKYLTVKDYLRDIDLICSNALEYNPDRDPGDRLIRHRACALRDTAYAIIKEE
# BAZ2B = BAZ2B (Homo sapiens, UniProt Q9UIF8); assay: Bromodomain Binding Assay; conditions: 10 μM Compound 074, read-out: Bromodomain Binding % of Control
# Chain of BAZ2B (Q9UIF8 2060-2164 limits assumed): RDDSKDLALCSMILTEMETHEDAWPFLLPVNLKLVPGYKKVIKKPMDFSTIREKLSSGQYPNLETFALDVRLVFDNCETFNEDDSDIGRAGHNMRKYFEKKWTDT
# BRD7 = BRD7 (Homo sapiens, UniProt Q9NPI1); assay: Bromodomain Binding Assay; conditions: 10 μM Compound 074, read-out: Bromodomain Binding % of Control
# Chain of BRD7 (Q9NPI1 131-235 limits assumed): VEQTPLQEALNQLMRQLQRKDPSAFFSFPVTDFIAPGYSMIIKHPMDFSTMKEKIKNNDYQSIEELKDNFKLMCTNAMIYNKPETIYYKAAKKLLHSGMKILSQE
# BRPF3 = BRPF3 (Homo sapiens, UniProt Q9ULD4); assay: Bromodomain Binding Assay; conditions: 10 μM Compound 074, read-out: Bromodomain Binding % of Control
# Chain of BRPF3 (Q9ULD4 589-693 limits assumed): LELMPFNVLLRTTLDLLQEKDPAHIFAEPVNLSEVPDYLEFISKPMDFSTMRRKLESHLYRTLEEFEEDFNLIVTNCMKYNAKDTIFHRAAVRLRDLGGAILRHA
# CREBBP = CREBBP (Homo sapiens, UniProt Q92793); assay: Bromodomain Binding Assay; conditions: 10 μM Compound 074, read-out: Bromodomain Binding % of Control
# Chain of CREBBP (Q92793 1085-1192 limits assumed): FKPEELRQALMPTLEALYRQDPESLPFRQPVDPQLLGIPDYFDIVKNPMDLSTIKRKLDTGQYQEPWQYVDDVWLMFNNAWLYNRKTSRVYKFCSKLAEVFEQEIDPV
# KAT2A = KAT2A (Homo sapiens, UniProt Q92830); assay: Bromodomain Binding Assay; conditions: 10 μM Compound 074, read-out: Bromodomain Binding % of Control
# Chain of KAT2A (Q92830 728-832 limits assumed): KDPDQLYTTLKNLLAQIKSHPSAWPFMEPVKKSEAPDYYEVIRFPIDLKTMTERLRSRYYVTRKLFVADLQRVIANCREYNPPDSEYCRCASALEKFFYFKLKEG
# PBRM1 BD5 = PBRM1 BD5 (Homo sapiens, UniProt Q86U86); assay: Bromodomain Binding Assay; conditions: 10 μM Compound 074, read-out: Bromodomain Binding % of Control
# Chain of PBRM1 BD5 (Q86U86 653-763 limits assumed): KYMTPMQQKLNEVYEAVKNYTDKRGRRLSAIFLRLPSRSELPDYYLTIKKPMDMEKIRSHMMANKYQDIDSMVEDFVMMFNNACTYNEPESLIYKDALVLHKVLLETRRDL
# SMARCA2 = biological target: T1, SMARCA2 (Homo sapiens, UniProt P51531); assay: Bromodomain Binding Assay; conditions: 10 μM Compound 074, read-out: Bromodomain Binding % of Control
# T1 construct: made in house; host or cells: T7 phage grown in E. coli host derived from BL21
# T1 sequence (P51531 1378-1506 limits assumed): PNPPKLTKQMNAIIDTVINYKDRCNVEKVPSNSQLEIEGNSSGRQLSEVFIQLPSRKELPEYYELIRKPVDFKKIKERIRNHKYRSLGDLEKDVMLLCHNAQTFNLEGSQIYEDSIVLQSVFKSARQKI
# TAF1L BD2 = biological target: T2, TAF1L BD2 (Homo sapiens, UniProt Q8IZX4); assay: Bromodomain Binding Assay; conditions: 10 μM Compound 074, read-out: Bromodomain Binding % of Control
# T2 construct: made in house; host or cells: T7 phage grown in E. coli host derived from BL21
# T2 sequence (Q8IZX4 1517-1626 limits assumed): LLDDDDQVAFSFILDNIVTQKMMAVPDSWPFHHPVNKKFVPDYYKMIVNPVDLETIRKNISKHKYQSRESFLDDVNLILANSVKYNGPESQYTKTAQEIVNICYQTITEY
# TRIM24 = biological target: T3, TRIM24 (Homo sapiens, UniProt O15164); assay: Bromodomain Binding Assay; conditions: 10 μM Compound 074, read-out: Bromodomain Binding % of Control
# T3 construct: made in house; host or cells: T7 phage grown in E. coli host derived from BL21
# T3 sequence (O15164 899-1004 limits assumed): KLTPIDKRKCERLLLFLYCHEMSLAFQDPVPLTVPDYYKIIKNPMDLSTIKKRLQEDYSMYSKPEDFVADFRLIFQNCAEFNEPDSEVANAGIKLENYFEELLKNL
# BRWD1 BD2 = biological target: T4, BRWD1 BD2 (Homo sapiens, UniProt Q9NSI6); assay: Bromodomain Binding Assay; conditions: 10 μM Compound 074, read-out: Bromodomain Binding % of Control
# T4 construct: made in house; host or cells: T7 phage grown in E. coli host derived from BL21
# T4 sequence (Q9NSI6 1313-1418 limits assumed): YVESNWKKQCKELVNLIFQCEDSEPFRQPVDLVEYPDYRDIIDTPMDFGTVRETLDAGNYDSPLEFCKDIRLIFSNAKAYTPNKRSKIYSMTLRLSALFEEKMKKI
# BRD4 = biological target: T5, BRD4 (Homo sapiens, UniProt O60885); assay: BRD4 western blotting in MV4-11 cells; format: cell-based
# T5 construct: endogenous in cells; host or cells: MV4-11
# Procedure: Cells were then collected by centrifugation, washed one time with cold PBS, supernatants aspirated and cell pellets lysed with 4° C. RIPA lysis buffer containing a protease/phosphatase inhibitor cocktail. The total protein concentrations of cell lysates were determined by BCA Protein Assay kit. Samples were normalized for equivalent protein concentrations, 5× loading buffer added and heated to 100° C. for 10 min and cooled to room temperature. 20 μl of each sample/well was loaded on a SDS-PAGE gel and electrophoresed for 20 min at 80 V, then 120 V for 1.5 hr. Gels were then electroblotted to nitrocellulose membranes using a wet-transfer method at 250 mA for 2.5 hr. Membranes were incubated with blocking buffer for 1 hr and washed 3 times with TBST for 5 min. Then membranes were incubated with anti-BRD4 (Cell Signaling Technology, #13440) and anti-beta-Actin (Cell Signaling Technology, #3700) antibodies diluted in blocking buffer per the manufacturer's recommendation at 4° C. overnight. After washing 3 times, blots were incubated with the appropriate labeled secondary antibody for 1 hr at room temperature and washed again. Images were read on a LI-COR and the optical density values of bands determined by ImageJ software. Data was analyzed using GraphPad Prism 7.0.
# HSP90 client proteins = assay: HSP90 Client Protein Degradation Flow Cytometry Assay (summary over all clients); format: cell-based, human; conditions: ERBB2, IGF1R, EGFR and RAF1
# Procedure: MV4-11 cells were plated in a 24-well tissue culture plate at a density of 350,000 cells/450 μL/well and incubated in 37° C./5% CO2 for 1 hr. Cells were then treated with compounds at various concentrations and incubated in 37° C./5% CO2 for 24 hr. Cells were harvested, washed once, counted and 200 μL of 1% paraformaldehyde/PBS was added and incubated for 15 min at room temperature. 200 μL of 1×PBS/0.4% Triton X-100 was added and incubated for 15 min at 4° C. Cells were washed three times and resuspended in 50 μL of 1×PBS/0.2% Triton X-100. 2 μL/10^6 cells of anti-BRD4 antibody (ABCAM, #128874) was added and mixed by pipetting up and down. Cells were incubated for 30 min at room temperature in the dark, washed three times and resuspended in 50 μL of 1×PBS/0.2% Triton X-100. Goat anti-rabbit IgG H&L antibody (1:2000 dilution) was added and mixed by pipetting up and down and incubated for 30 min at room temperature in the dark. Finally, cells were washed three times and resuspended in 200 μL of PBS for flow cytometric analysis.
# Similar flow cytometry experiments for ERBB2 in BT-474 human breast carcinoma cells (ATCC, #HTB-20) and IGF1R, EGFR and RAF1 in HEK-293 human embryonic kidney (ATCC, #CRL-1573) were performed using anti-ERBB2 (R&D, #FAB1129P), anti-IGF1R (Cell Signaling Technology, #9750), anti-EGFR (Cell Signaling Technology, #139690) and anti-RAF1 (ABCAM, #ab181115) antibodies.
# [1] = Pharmacokinetics and tissue distribution in the MV4-11 xenograft model in mice; format: in vivo; conditions: for AUC(0-∞): 5 mg/kg single intravenous dose
# Procedure: Pharmacokinetics and Tissue Distribution
# 15 female CB-17 SCID mice (treated in accordance with AAALAC animal welfare guidelines) were weighed and administered 5 mg/kg of compound 074 by a single intravenous injection. 0.10 mL of blood was collected from each mouse by submandibular vein and sodium heparin was added as an anticoagulant. Samples were collected before compound administration, and at 1 hr, 6 hr 24 hr and 48 hr time points after administration, with 3 mice sampled per time point. After collection, samples were placed on ice and the animals sacrificed to collect tumor and normal tissues. The method development and analysis of all samples were performed by the analytical laboratory at Shanghai Medicilon Inc. Intra-day accuracy evaluation of samples for quality control was carried out during sample analysis and a quality control accuracy of more than 66.7% of samples was required between to be 80-120%. Pharmacokinetic parameters were calculated using Phoenix WinNonlin7.0 software.
compound,measurement,setting,value
"Cc1sc2c(c1C)C(c1ccc(Cl)cc1)=N[C@@H](CC(=O)N1CCC(CN3CCN(Cc4ccc(-n5c(O)nnc5-c5cc(C(C)C)c(O)cc5O)cc4)CC3)CC1)c1nnc(C)n1-2.Cl [Compound 74, (S)-2-(4-(4-chlorophenyl)-2,3,9-trimethyl-6H-thieno[3,2-f][1,2,4]triazolo[4,3-a][1,4]diazepin-6-yl)-1-(4-((4-(4-(3-(2,4-dihydroxy-5-isopropylphenyl)-5-hydroxy-4H-1,2,4-triazol-4-yl)benzyl)piperazin-1-yl)methyl)piperidin-1-yl)ethan-1-one hydrochloride]",potency in binding to HSP90 (in words),HSP90α,moderate potency
same,remaining activity at 10 µM,ATAD2,> 75%
same,remaining activity at 10 µM,BAZ2B,> 75%
same,remaining activity at 10 µM,BRD7,> 75%
same,remaining activity at 10 µM,BRPF3,> 75%
same,remaining activity at 10 µM,CREBBP,> 75%
same,remaining activity at 10 µM,KAT2A,> 75%
same,remaining activity at 10 µM,PBRM1 BD5,> 75%
same,remaining activity at 10 µM,SMARCA2,> 75%
same,remaining activity at 10 µM,TAF1L BD2,> 75%
same,remaining activity at 10 µM,TRIM24,> 75%
same,remaining activity at 10 µM,BRWD1 BD2,> 75%
same,BRD4 degradation by western blotting with proteasome inhibitor bortezomib (FIG. 2),BRD4; MV4-11 cells treated with both compound 074 and bortezomib,BRD4 degradation was blocked
same,BRD4 degradation by western blotting (FIG. 1),"BRD4; MV4-11 cells, 24 hr, 100 and 300 nM",BRD4 degradation was observed
same,IC50,HSP90 client proteins,339 to 1060 nM
same,AUC(0-∞),[1]; Heart,8828.71 ng·h/g
same,AUC(0-∞),[1]; Liver,24415.49 ng·h/g
same,AUC(0-∞),[1]; Lung,14199.86 ng·h/g
same,AUC(0-∞),[1]; Tumor,23857.20 ng·h/g
same,half-life in tumors relative to plasma and other organs,[1]; times as long as in plasma and other organs,4.6-9.5 times
